In PMC5374710, “Discovery of the first dual GSK3β inhibitor/Nrf2 inducer. A new multitarget therapeutic strategy for Alzheimer’s disease” (Scientific Reports, 2017):

Key:
NOX = NOX activity assay in LPS-stimulated glial cultures (lucigenin); format: cell-based, rat; conditions: 10 to 60 μM, 4 h stimulation with LPS 1 μg/mL, p < 0.01
Experimental: (§1) TNFα is considered one of the most important pro-inflammatory cytokines. […] The production of TNFα induced by LPS was reduced by 33% at 10 μM and by 50% at 30 μM. […] To further confirm the anti-inflammatory potential of compound 5c we measured the expression of thre NOX2 enzyme, since this isoform has been widely described as being specific tomicroglial cells. As depicted in Fig. 6F, LPS (1 μg/mL) stimulation of primary glial cultures during 24 h increased the expression of NOX2 by 65.3% (p < 0.01) compared to basal conditions.
(§2) Figure 6 Nitrites (A), TNFα (B), iNOS (C) and NOX activity (E) blockade (D) and NOX2 production (F) by 5c in primary glial cultures stimulated with LPS (1 μg/mL), HO-1 expression induced by this compound after 24 h. […] NOX activity was measured after 4 h co-treatment with LPS and compound 5c. […]
Cells were pre-incubated with increasing concentrations of the compound. […] Then, treatments were removed and NADPH oxidase activity was assessed by measuring O2^− production in the presence of the substrate, NADPH (100 μM) as lucigenin-enhanced chemiluminiscence (5 μM lucigenin). No enzymatic activity was detected in the absence of NADPH. Luminescence was recorded 29 times every 1.8 seconds for each well in a luminometer, and NADPH oxidase activity was expressed as relative light units (RLU)/min normalized to basal value. […]

NOX2 = NOX2 expression in LPS-stimulated primary glial cultures (western blot); format: cell-based, rat; conditions: 30 μM, LPS 1 μg/mL 24 h (LPS alone 65.3%)
Experimental: as §1, §2
After treatment, mixed glial cells were washed with cold PBS and lysed in 100 μl ice-cold lysis buffer (1% Nonident P-40, 10% glycerol, 137 mM NaCl, 20 mM Tris HCl pH 7.5, 1 μg/ml leupeptin, 1 mM phenylmethylsulfonyl fluoride, 20 mM NaF, 1 mM sodium pyrophosphate, and 1 mM Na3VO4). […] Peroxidase-conjugated secondary antibodies (1:10000) were used to detect proteins by enhanced chemiluminescence detected by Advance Western-blotting Detection Kit (GE Healthcare, Barcelona, Spain). […]

Compound: COc1cccc(C2C(C#N)=C(N)Oc3n[nH]c(C)c32)c1 (centres unmarked) [Compound 5c, 6-Amino-4-(3-methoxyphenyl)-3-methyl-2,4-dihydropyrano[2,3-c]pyrazole-5-carbonitrile]
- Reduction of NOX activity (NOX): significantly reduce
- NOX2 expression increase compared to basal conditions in presence of LPS (NOX2): 11.1%
